Laboratory results published in ChEMBL document CHEMBL4130587, “Chemical Compounds as Inhibitors of Kinase Activity for the Treatment of Cancer and COPD” (ACS Med Chem Lett, 2017).

Legend:
[1] = target: T1, Phosphatidylinositol 4,5-bisphosphate 3-kinase catalytic subunit delta isoform (Homo sapiens, UniProt O00329); assay: Inhibition of GST-tagged PI3Kdelta […] (unknown origin) using PIP2 as subtrate after 1 hr in presence of biotin-labeled PIP3 by TR-FRET assay
T1 sequence (O00329 whole entry): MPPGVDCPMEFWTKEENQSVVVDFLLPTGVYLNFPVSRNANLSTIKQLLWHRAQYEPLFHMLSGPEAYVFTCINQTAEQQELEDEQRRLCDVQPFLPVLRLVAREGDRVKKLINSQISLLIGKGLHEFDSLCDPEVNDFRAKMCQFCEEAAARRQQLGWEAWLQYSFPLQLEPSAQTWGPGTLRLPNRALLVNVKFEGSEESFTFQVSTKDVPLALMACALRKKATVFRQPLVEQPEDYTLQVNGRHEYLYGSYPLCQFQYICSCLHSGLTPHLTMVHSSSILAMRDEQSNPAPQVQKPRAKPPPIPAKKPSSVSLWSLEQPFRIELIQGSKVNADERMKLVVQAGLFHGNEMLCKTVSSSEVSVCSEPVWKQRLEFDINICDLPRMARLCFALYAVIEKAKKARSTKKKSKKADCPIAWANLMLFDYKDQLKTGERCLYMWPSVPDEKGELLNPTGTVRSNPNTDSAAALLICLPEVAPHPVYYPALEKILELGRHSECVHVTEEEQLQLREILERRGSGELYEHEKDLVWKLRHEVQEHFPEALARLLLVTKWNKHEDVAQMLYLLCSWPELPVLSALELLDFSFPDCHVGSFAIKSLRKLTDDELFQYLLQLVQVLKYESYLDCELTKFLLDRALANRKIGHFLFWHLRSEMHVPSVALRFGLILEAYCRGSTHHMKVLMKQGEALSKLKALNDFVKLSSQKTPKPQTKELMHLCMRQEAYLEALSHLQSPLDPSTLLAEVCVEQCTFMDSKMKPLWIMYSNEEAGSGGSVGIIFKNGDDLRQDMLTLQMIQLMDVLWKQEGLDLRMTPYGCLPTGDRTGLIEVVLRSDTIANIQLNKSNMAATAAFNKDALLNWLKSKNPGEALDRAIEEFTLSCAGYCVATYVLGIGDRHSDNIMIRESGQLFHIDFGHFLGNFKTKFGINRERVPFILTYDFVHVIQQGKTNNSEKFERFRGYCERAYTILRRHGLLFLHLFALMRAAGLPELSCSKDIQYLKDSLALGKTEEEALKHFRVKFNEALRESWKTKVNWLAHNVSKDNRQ

[2] = target: Phosphatidylinositol 4,5-bisphosphate 3-kinase catalytic subunit alpha isoform (Homo sapiens, UniProt P42336); assay: Inhibition of GST-tagged PI3Kalpha […] (unknown origin) using PIP2 as subtrate after 1 hr in presence of biotin-labeled PIP3 by TR-FRET assay
Phosphatidylinositol 4,5-bisphosphate 3-kinase catalytic subunit alpha isoform, sequence (P42336 whole entry, canonical isoform): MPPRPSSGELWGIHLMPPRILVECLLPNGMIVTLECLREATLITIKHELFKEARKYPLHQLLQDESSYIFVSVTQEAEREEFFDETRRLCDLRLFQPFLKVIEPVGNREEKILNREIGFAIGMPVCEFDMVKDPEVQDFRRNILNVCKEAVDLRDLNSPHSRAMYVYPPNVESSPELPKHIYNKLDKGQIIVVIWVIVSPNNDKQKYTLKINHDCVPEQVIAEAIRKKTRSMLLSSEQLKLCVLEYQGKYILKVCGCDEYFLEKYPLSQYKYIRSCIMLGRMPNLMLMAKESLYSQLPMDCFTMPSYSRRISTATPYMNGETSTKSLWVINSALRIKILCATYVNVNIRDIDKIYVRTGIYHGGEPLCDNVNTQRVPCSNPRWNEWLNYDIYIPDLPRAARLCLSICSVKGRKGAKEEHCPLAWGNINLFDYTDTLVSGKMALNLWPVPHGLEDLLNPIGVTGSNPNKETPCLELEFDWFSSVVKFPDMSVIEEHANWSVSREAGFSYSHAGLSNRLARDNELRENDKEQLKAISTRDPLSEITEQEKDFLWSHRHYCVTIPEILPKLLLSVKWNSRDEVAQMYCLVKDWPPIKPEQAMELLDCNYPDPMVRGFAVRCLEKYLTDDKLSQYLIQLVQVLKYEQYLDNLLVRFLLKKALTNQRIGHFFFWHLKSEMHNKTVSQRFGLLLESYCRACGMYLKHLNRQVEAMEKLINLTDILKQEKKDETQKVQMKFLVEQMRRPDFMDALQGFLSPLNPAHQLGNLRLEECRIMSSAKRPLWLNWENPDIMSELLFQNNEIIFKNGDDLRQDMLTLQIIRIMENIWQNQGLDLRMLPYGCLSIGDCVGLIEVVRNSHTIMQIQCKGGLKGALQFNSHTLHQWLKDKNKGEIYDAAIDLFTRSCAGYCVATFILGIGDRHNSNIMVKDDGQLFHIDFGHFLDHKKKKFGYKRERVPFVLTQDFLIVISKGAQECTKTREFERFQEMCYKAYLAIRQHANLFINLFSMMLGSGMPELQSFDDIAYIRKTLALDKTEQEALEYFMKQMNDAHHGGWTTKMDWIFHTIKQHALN

[3] = target: Phosphatidylinositol 4,5-bisphosphate 3-kinase catalytic subunit gamma isoform (Homo sapiens, UniProt P48736); assay: Inhibition of GST-tagged PI3Kgamma […] (unknown origin) using PIP2 as subtrate after 1 hr in presence of biotin-labeled PIP3 by TR-FRET assay
Phosphatidylinositol 4,5-bisphosphate 3-kinase catalytic subunit gamma isoform, sequence (P48736 whole entry, canonical isoform): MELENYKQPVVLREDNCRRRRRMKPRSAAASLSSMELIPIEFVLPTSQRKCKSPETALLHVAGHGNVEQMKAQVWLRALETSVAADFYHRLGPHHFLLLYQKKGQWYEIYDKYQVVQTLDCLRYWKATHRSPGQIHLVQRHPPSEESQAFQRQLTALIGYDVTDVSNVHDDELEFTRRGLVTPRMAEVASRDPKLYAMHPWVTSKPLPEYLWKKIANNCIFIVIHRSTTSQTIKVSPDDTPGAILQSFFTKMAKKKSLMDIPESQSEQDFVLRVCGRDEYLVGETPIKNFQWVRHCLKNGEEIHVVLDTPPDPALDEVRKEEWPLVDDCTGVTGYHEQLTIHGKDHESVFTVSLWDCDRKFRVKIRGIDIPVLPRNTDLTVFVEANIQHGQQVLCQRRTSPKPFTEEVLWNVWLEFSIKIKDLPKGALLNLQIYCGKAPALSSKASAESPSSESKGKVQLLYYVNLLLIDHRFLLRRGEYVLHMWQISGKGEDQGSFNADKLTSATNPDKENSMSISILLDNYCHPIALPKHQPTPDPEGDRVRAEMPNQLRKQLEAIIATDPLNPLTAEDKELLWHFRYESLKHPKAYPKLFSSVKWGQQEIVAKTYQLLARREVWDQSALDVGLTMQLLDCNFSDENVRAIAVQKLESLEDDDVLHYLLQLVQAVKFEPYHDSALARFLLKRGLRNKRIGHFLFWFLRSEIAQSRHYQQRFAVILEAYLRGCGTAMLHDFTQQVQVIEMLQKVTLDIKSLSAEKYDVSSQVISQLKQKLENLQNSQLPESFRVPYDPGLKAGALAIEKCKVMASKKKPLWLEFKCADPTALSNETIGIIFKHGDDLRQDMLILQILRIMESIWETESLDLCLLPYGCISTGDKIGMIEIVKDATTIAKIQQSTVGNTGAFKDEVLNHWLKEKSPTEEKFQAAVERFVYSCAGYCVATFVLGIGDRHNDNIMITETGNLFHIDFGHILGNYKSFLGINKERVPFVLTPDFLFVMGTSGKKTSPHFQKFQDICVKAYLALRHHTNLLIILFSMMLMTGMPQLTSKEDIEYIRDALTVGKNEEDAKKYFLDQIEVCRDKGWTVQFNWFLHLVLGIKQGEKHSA

[4] = target: Phosphatidylinositol 4,5-bisphosphate 3-kinase catalytic subunit beta isoform (Homo sapiens, UniProt P42338); assay: Inhibition of GST-tagged PI3Kbeta […] (unknown origin) using PIP2 as subtrate after 1 hr in presence of biotin-labeled PIP3 by TR-FRET assay
Phosphatidylinositol 4,5-bisphosphate 3-kinase catalytic subunit beta isoform, sequence (P42338 whole entry, canonical isoform): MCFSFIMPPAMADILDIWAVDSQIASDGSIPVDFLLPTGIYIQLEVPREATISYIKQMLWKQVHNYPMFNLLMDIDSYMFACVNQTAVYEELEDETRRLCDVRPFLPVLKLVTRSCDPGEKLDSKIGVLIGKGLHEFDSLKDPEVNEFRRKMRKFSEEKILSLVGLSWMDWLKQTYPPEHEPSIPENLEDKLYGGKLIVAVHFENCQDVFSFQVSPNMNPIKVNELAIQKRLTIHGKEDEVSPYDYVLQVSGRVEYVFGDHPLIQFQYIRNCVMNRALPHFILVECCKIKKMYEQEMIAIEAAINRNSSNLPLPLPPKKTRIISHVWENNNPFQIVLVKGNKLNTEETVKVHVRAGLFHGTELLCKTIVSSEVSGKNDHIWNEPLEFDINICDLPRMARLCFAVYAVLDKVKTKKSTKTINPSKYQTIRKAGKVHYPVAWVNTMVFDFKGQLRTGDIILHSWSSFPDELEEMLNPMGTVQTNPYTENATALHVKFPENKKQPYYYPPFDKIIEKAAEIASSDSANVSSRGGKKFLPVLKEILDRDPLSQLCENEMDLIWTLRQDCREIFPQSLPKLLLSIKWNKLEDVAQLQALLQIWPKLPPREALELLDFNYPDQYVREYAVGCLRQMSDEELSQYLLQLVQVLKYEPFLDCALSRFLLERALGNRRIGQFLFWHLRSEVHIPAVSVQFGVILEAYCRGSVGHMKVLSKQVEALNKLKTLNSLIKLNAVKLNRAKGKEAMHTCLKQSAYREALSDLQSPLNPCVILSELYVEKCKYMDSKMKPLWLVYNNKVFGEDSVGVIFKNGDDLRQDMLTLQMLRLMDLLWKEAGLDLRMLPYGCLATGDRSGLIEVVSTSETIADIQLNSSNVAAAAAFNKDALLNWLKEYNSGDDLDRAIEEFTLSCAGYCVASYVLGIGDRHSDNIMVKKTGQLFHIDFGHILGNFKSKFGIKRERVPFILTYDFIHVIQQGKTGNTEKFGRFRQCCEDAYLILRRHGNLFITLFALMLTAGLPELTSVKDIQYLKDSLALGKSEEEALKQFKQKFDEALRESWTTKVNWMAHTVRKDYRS

Measured: IC50

COc1ncc(N2CCOCC2)cc1S(=O)(=O)Nc1ccnc(-c2ccc(CN3CCN(C4COC4)CC3)cc2)c1
≤ 10 µM: [1] | [2] | [3] | [4]

COc1ncc(N2CCOCC2)cc1S(=O)(=O)Nc1ccnc(-c2ccc(CN3CCN(C4CCC4)CC3)cc2F)c1
≤ 10 µM: [1] | [2] | [3] | [4]

CC(C)N1CCN(Cc2ccc(-c3cc(NS(=O)(=O)c4cc(N5CCOCC5)cnc4N(C)C)ccn3)c(F)c2)CC1
≤ 10 µM: [1] | [2] | [3] | [4]

CCC(C)N1CCN(Cc2ccc(-c3cc(NS(=O)(=O)c4cc(N5CCOCC5)cnc4OC)ccn3)cc2)CC1 (stereo not drawn)
≤ 10 µM: [1] | [2] | [3] | [4]

COCCN1CCN(Cc2ccc(-c3cc(NS(=O)(=O)c4cc(N5CCOCC5)cnc4OC)ccn3)c(F)c2)CC1
≤ 10 µM: [1] | [2] | [3] | [4]

COc1ncc(N2CCOCC2)cc1S(=O)(=O)Nc1ccnc(-c2ccc(CN3CCC(C)C3)cc2F)c1 (stereo not drawn)
≤ 10 µM: [1] | [2] | [3] | [4]

CCOC(=O)CN(c1ccnc(-c2ccc(CN3CCN(C(C)C)CC3)cc2F)c1)S(=O)(=O)c1cc(N2CCOCC2)cnc1OC
≤ 10 µM: [1] | [2] | [3] | [4]

CCOc1ncc(N2CCOCC2)cc1S(=O)(=O)Nc1ccnc(-c2ccc(CN3C[C@@H](C)O[C@@H](C)C3)cc2F)c1
≤ 10 µM: [1] | [2] | [3] | [4]

COc1ncc(N2CCOCC2)cc1S(=O)(=O)N(c1ccnc(-c2ccc(CN3CCN(C(C)C)CC3)cc2F)c1)C(C)C
≤ 10 µM: [1] | [2] | [3] | [4]

COc1ncc(N2CCOCC2)cc1S(=O)(=O)Nc1ccnc(-c2ccc(CN3CCCC3)c(F)c2)c1
≤ 10 µM: [1] | [2] | [3] | [4]

COc1ncc(N2CCOCC2)cc1S(=O)(=O)Nc1ccnc(-c2ccc(CN3CCN(C(C)(C)C)CC3)cc2)c1
≤ 10 µM: [1] | [2] | [3] | [4]

COc1ncc(N2CCOCC2)cc1S(=O)(=O)Nc1ccnc(-c2ccc(CN3C[C@@H](C)O[C@@H](C)C3)cc2)c1
≤ 10 µM: [1] | [2] | [3] | [4]

CN(C)c1ncc(N2CCOCC2)cc1S(=O)(=O)Nc1ccnc(-c2ccc(CN3CCN(C(C)(C)C)CC3)cc2F)c1
≤ 10 µM: [1] | [2] | [3] | [4]

COc1ncc(N2CCOCC2)cc1S(=O)(=O)Nc1ccnc(-c2ccc(CN3CCCCC3)cc2F)c1
≤ 10 µM: [1] | [2] | [3] | [4]

COc1ncc(N2CCOCC2)cc1S(=O)(=O)Nc1ccnc(-c2ccc(CN3CCN(C(C)C)CC3)cc2F)c1
≤ 10 µM: [1] | [2] | [3] | [4]

COc1ncc(N2CCOCC2)cc1S(=O)(=O)Nc1ccnc(-c2cc(Cl)c(CN3CCN(C(C)C)CC3)cc2F)c1
≤ 10 µM: [1] | [2] | [3] | [4]

CCN(c1ccnc(-c2ccc(CN3CCN(C(C)C)CC3)cc2F)c1)S(=O)(=O)c1cc(N2CCOCC2)cnc1OC
≤ 10 µM: [1] | [2] | [3] | [4]

COc1ncc(N2CCOCC2)cc1S(=O)(=O)Nc1ccnc(-c2c(F)cc(CN3CCN(C(C)C)CC3)cc2F)c1
≤ 10 µM: [1] | [2] | [3] | [4]

COc1ncc(N2CCOCC2)cc1S(=O)(=O)Nc1ccnc(-c2ccc(CN3CCN(C(C)C)CC3)cc2)c1
≤ 10 µM: [1] | [2] | [3] | [4]

COc1ncc(N2CCOCC2)cc1S(=O)(=O)Nc1ccnc(-c2ccc(CN3CCNCC3)cc2F)c1
≤ 10 µM: [1] | [2] | [3] | [4]

COc1ncc(N2CCOCC2)cc1S(=O)(=O)Nc1ccnc(-c2ccc(CN3CCN(C(C)C)CC3)c(F)c2F)c1
≤ 10 µM: [1] | [2] | [3] | [4]

COc1ncc(N2CCOCC2)cc1S(=O)(=O)Nc1ccnc(-c2ccc(CN3CCN(C4COC4)CC3)cc2F)c1
≤ 10 µM: [1] | [2] | [3] | [4]

COc1ncc(N2CCOCC2)cc1S(=O)(=O)Nc1ccnc(-c2ccc(CN3CCCC3C)cc2F)c1 (stereo not drawn)
≤ 10 µM: [1] | [2] | [3] | [4]

COc1ncc(N2CCOCC2)cc1S(=O)(=O)Nc1ccnc(-c2ccc(CN3CCCC3)cc2F)c1
≤ 10 µM: [1] | [2] | [3] | [4]

CCCN(c1ccnc(-c2ccc(CN3CCN(C(C)C)CC3)cc2F)c1)S(=O)(=O)c1cc(N2CCOCC2)cnc1OC
≤ 10 µM: [1] | [2] | [3] | [4]

COc1ncc(N2CCOCC2)cc1S(=O)(=O)Nc1ccnc(-c2ccc(CN3CCN(C(C)C)CC3)c(F)c2)c1
≤ 10 µM: [1] | [2] | [3] | [4]

COc1ncc(N2CCOCC2)cc1S(=O)(=O)Nc1ccnc(-c2ccc(CN3CCOCC3)cc2)c1
≤ 10 µM: [1] | [2] | [3] | [4]

COc1ncc(N2CCOCC2)cc1S(=O)(=O)Nc1ccnc(-c2cc(F)c(CN3CCN(C(C)C)CC3)cc2F)c1
≤ 10 µM: [1] | [2] | [3] | [4]

COc1ncc(N2CCOCC2)cc1S(=O)(=O)Nc1ccnc(-c2ccc(CN3CCC(C(C)(C)O)CC3)cc2F)c1
≤ 10 µM: [1] | [2] | [3] | [4]

COc1ncc(N2CCOCC2)cc1S(=O)(=O)N(COC(=O)C(C)(C)C)c1ccnc(-c2ccc(CN3CCN(C(C)C)CC3)cc2F)c1
≤ 10 µM: [1] | [2] | [3] | [4]

COc1ncc(N2CCOCC2)cc1S(=O)(=O)Nc1ccnc(-c2cc(F)c(CN3CCN(C(C)C)CC3)c(F)c2)c1
≤ 10 µM: [1] | [2] | [3] | [4]

COc1ncc(N2CCOCC2)cc1S(=O)(=O)Nc1ccnc(-c2ccc(CN3CCN(C(C)(C)C)CC3)cc2F)c1
≤ 10 µM: [1] | [2] | [3] | [4]

COc1ncc(N2CCOCC2)cc1S(=O)(=O)Nc1ccnc(-c2ccc(CN3C[C@@H](C)O[C@@H](C)C3)cc2F)c1
≤ 10 µM: [1] | [2] | [3] | [4]

COc1ncc(N2CCOCC2)cc1S(=O)(=O)N(C)c1ccnc(-c2ccc(CN3CCN(C(C)C)CC3)cc2F)c1
≤ 10 µM: [1] | [2] | [3] | [4]

COc1ncc(N2CCOCC2)cc1S(=O)(=O)N(C)c1ccnc(-c2ccc(CN3CCN(C(C)(C)C)CC3)cc2F)c1
≤ 10 µM: [1] | [2] | [3] | [4]

COc1ncc(N2CCOCC2)cc1S(=O)(=O)Nc1ccnc(-c2ccc(CN3CCN(C4CCC4)CC3)cc2)c1
≤ 10 µM: [1] | [2] | [3] | [4]

COc1ncc(N2CCOCC2)cc1S(=O)(=O)Nc1ccnc(-c2ccc(CN(C)C)cc2)c1
≤ 10 µM: [1] | [2] | [3] | [4]
